Experimental data as given in BindingDB's records for patent WO2022104348 (Janssen Pharmaceutica, 2022).

Each compound was assayed against Mitogen-activated protein kinase kinase kinase 14 (Homo sapiens, UniProt Q99558) (assay: Inhibition of auto-phosphorylation of recombinant human NF-kappaB-inducing kinase (NIK/MAP3K14) activity).
Experimental: NIK/MAP3K14 auto-phosphorylation activity was measured using the AlphaScreen (ascreen) format (Perkin Elmer). All compound6 tested were dissolved in dimethyl sulfoxide (DMSO) and further dilutions were made in assay buffer. The final DMSO concentration was 0.7% (v/v) in assays. The assay buffer was 50 mM Tris pH 7.5 containing 1 mM EGTA (ethylene glycol tetraacetic acid), 1 mM DTT (dithiothreitol), 0.1 mM NasVCO4, 5 mM MgCE, and 0.01 % Tween 20. The assays were carried out in 384 well Proxiplates (Perkin Elmer). The incubations consisted of the compound, […] Adenosine-5'-triphosphate (ATP), and 1 nM NIK/MAP3K14. Incubations were initiated by the addition of GST-tagged NIK/MAP3K14 enzyme, carried out for 2 h at 25 °C and terminated by addition of stop buffer containing anti-phospho-IKK Ser176/180 antibody. Protein A Acceptor and Glutathione-Donor bead6 were added before reading using an EnVision Multilabel Plate Reader (Perkin Elmer). The signal obtained in the wells was normalized using high (full enzyme activity, 0.7% DMSO) and low controls (no enzyme activity, 0.7% DMSO, no ATP). IC50 s were determined by fitting a sigmoidal curve to % inhibition of control versus Log compound concentration.

Mitogen-activated protein kinase kinase kinase 14, sequence (Q99558 whole entry): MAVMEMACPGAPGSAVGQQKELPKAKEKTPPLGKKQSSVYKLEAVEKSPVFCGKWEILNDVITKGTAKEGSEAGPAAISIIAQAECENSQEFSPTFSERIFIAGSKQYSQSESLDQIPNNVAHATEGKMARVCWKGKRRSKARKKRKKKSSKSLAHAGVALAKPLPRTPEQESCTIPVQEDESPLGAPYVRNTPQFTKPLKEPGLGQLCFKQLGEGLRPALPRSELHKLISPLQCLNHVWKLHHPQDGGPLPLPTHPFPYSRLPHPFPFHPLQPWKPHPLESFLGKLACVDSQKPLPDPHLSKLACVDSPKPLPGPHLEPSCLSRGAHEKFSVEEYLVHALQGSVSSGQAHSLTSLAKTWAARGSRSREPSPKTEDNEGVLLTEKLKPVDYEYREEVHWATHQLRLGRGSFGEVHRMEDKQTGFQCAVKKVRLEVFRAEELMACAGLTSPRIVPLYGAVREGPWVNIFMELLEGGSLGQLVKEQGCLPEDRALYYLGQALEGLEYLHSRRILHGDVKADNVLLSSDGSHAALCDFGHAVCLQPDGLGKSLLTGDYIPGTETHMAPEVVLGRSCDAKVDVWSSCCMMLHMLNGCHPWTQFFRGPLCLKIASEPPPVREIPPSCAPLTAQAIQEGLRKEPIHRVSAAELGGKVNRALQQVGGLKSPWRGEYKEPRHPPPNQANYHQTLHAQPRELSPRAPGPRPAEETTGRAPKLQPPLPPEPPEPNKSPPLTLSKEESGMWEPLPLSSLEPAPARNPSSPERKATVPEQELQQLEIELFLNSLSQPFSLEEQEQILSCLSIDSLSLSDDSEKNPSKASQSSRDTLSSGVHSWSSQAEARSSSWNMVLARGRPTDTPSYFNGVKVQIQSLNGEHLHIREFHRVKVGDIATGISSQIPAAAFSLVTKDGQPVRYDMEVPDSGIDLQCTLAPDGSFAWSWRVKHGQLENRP

Structure (SMILES)	IC50 [µM]
O[C@]1(c2cccc(-c3csc(-c4c[nH]c5ncccc45)n3)c2)CCc2cccnc21 [WO2022104348, Example 1]	> 0.5
O[C@@]1(c2cccc(-c3csc(-c4c[nH]c5ncccc45)n3)c2)CCc2cccnc21 [WO2022104348, Example 2]	< 0.1
CN1CC[C@](O)(c2cccc(-c3cnc(-c4c[nH]c5ncccc45)s3)c2)C1=O [WO2022104348, Example 4]	> 0.5
O[C@@]1(c2cccc(-c3csc(-c4c[nH]c5ncncc45)n3)c2)CCc2cccnc21 [WO2022104348, Example 5]	< 0.1
Cc1cnc2[nH]cc(-c3nc(-c4cccc([C@]5(O)CCN(C)C5=O)c4)cs3)c2c1 [WO2022104348, Example 7]	< 0.1
CN1CC[C@@](O)(c2cccc(-c3nc(-c4c[nH]c5ncccc45)cs3)c2)C1=O [WO2022104348, Example 8]	< 0.1
O[C@]1(c2cccc(-c3csc(-c4c[nH]c5ncccc45)n3)c2)Cc2nccn2C1 [WO2022104348, Example 10]	< 0.1
O[C@]1(c2cccc(-c3csc(-c4c[nH]c5nccnc45)n3)c2)OCc2cccnc21 [WO2022104348, Example 17]	< 0.1
O[C@@]1(c2cccc(-c3csc(-c4c[nH]c5ncc(C(F)(F)F)cc45)n3)c2)Cc2nccn2C1 [WO2022104348, Example 25]	< 0.1
N#Cc1cnc2[nH]cc(-c3nc(-c4cccc([C@]5(O)Cc6nccn6C5)c4)cs3)c2c1 [WO2022104348, Example 26]	< 0.1
O[C@@]1(c2cccc(-c3csc(-c4c[nH]c5ncc(Cl)cc45)n3)c2)Cc2nccn2C1 [WO2022104348, Example 27]	< 0.1
O[C@@]1(c2cccc(-c3csc(-c4c[nH]c5ncccc45)n3)c2)CCc2scnc21 [WO2022104348, Example 32]	< 0.1
O[C@@]1(c2cccc(-c3csc(-c4c[nH]c5ncccc45)n3)c2)C=Cc2cccnc21 [WO2022104348, Example 33]	< 0.1
O[C@]1(c2cccc(-c3csc(-c4c[nH]c5ncccc45)n3)c2)C=Cc2cccnc21 [WO2022104348, Example 34]	> 0.5
CC1(C)Cc2cccnc2[C@@]1(O)c1cccc(-c2csc(-c3c[nH]c4ncccc34)n2)c1 [WO2022104348, Example 35]	> 0.5
CC1(C)Cc2cccnc2[C@]1(O)c1cccc(-c2csc(-c3c[nH]c4ncccc34)n2)c1 [WO2022104348, Example 36]	< 0.1
O[C@]1(c2cccc(-c3csc(-c4c[nH]c5ncccc45)n3)c2)CCCn2ccnc21 [WO2022104348, Example 37]	> 0.5
O[C@@]1(c2cccc(-c3csc(-c4c[nH]c5ncccc45)n3)c2)CCCn2ccnc21 [WO2022104348, Example 38]	< 0.1
CN1CC[C@](O)(c2cccc(-c3csc(-c4c[nH]c5ncccc45)n3)c2)C1=O [WO2022104348, Example 39]	> 0.5
CN1CC[C@@](O)(c2cccc(-c3csc(-c4c[nH]c5ncccc45)n3)c2)C1=O [WO2022104348, Example 40]	< 0.1
O[C@@]1(c2cccc(-c3csc(-c4c[nH]c5nccnc45)n3)c2)CCn2ccnc21 [WO2022104348, Example 41]	< 0.1
O=C1N(CC(F)(F)F)CC[C@]1(O)c1cccc(-c2csc(-c3c[nH]c4nccnc34)n2)c1 [WO2022104348, Example 43]	> 0.5
O=C1N(CC(F)(F)F)CC[C@@]1(O)c1cccc(-c2csc(-c3c[nH]c4nccnc34)n2)c1 [WO2022104348, Example 44]	> 0.5
CN1C[C@@](O)(c2cccc(-c3csc(-c4c[nH]c5nccnc45)n3)c2)C1=O [WO2022104348, Example 45]	> 0.5

Structure (SMILES)	IC50 [µM]
CN1C[C@](O)(c2cccc(-c3csc(-c4c[nH]c5nccnc45)n3)c2)C1=O [WO2022104348, Example 46]	> 0.5
COc1cnc2[nH]cc(-c3nc(-c4cccc([C@]5(O)CCN(C)C5=O)c4)cs3)c2c1 [WO2022104348, Example 49]	< 0.1
CN1CC[C@@](O)(c2cccc(-c3nc(-c4c[nH]c5ncccc45)sc3CO)c2)C1=O [WO2022104348, Example 50]	< 0.1
CN1CC[C@@](O)(c2cccc(-c3csc(-c4c[nH]c5ncc(C(=O)O)cc45)n3)c2)C1=O [WO2022104348, Example 51]	< 0.1
CN1CC[C@@](O)(c2cccc(-c3csc(-c4c[nH]c5ncncc45)n3)c2)C1=O [WO2022104348, Example 53]	< 0.1
CN1CCC[C@](O)(c2cccc(-c3csc(-c4c[nH]c5nccnc45)n3)c2)C1=O [WO2022104348, Example 55]	> 0.5
Cc1sc(-c2c[nH]c3nccnc23)nc1-c1cccc([C@]2(O)CCN(C)C2=O)c1 [WO2022104348, Example 66]	< 0.1
Cc1ccc([C@]2(O)CCN(C)C2=O)cc1-c1csc(-c2c[nH]c3nccnc23)n1 [WO2022104348, Example 67]	< 0.1
Cc1cc(-c2csc(-c3c[nH]c4nccnc34)n2)cc([C@]2(O)CCN(C)C2=O)c1 [WO2022104348, Example 68]	< 0.1
Cc1ccc(-c2csc(-c3c[nH]c4nccnc34)n2)cc1[C@@]1(O)CCN(C)C1=O [WO2022104348, Example 70]	> 0.5
O[C@@]1(c2cccc(-c3csc(-c4n[nH]c5cccnc45)n3)c2)CCn2ccnc21 [WO2022104348, Example 75]	≤ 0.5
C[C@@](O)(c1cccc(-c2csc(-c3c[nH]c4nccnc34)n2)c1)c1ncc[nH]1 [WO2022104348, Example 77]	> 0.5
C[C@](O)(c1cccc(-c2csc(-c3c[nH]c4nccnc34)n2)c1)c1ncc[nH]1 [WO2022104348, Example 78]	> 0.5
Cn1ccnc1[C@@](C)(O)c1cccc(-c2csc(-c3c[nH]c4ncccc34)n2)c1 [WO2022104348, Example 79]	> 0.5
C[C@@](O)(c1cccc(-c2csc(-c3c[nH]c4ncccc34)n2)c1)c1ncc[nH]1 [WO2022104348, Example 80]	> 0.5
Cc1cnc2[nH]cc(-c3nc(-c4cccc([C@@]5(O)CCn6ccnc65)c4)cs3)c2n1 [WO2022104348, Example 81]	< 0.1
Cc1cnc2c(-c3nc(-c4cccc([C@]5(O)CCn6ccnc65)c4)cs3)c[nH]c2n1 [WO2022104348, Example 83]	< 0.1
O[C@@]1(c2cccc(-c3csc(-c4c[nH]c5ncccc45)n3)c2)COc2cccnc21 [WO2022104348, Example 85]	> 0.5
O[C@@]1(c2cccc(-c3csc(-c4c[nH]c5nccnc45)n3)c2)COc2cccnc21 [WO2022104348, Example 86]	> 0.5
Cc1ccnc2[nH]cc(-c3nc(-c4cccc([C@]5(O)CCn6ccnc65)c4)cs3)c12 [WO2022104348, Example 87]	< 0.1
O[C@@]1(c2cccc(-c3csc(-c4c[nH]c5nnccc45)n3)c2)CCn2ccnc21 [WO2022104348, Example 88]	< 0.1
O=C1Nc2cccnc2[C@]1(O)c1cccc(-c2csc(-c3c[nH]c4ncccc34)n2)c1 [WO2022104348, Example 89]	> 0.5
O=C1Nc2cccnc2[C@@]1(O)c1cccc(-c2csc(-c3c[nH]c4ncccc34)n2)c1 [WO2022104348, Example 90]	> 0.5
CN1C(=O)[C@@](O)(c2cccc(-c3csc(-c4c[nH]c5ncccc45)n3)c2)c2ncccc21 [WO2022104348, Example 91]	> 0.5
